# Experimental data: patent publication US9399649B2, “Compounds for treating spinal muscular atrophy” (PTC Therapeutics Inc., priority 2012, dated 2016)
# Key:
# Smn protein = Smn protein assay in cultured cells (SMN HTRF); type: cell-based, human; details: SMA patient fibroblast cells (GM03813), 48 hours; for maximum fold (Fold) increase of Smn protein: 7-point concentration data, relative to vehicle control; for EC1.5x for Smn protein expression: 7-point concentration curve, concentration producing 1.5 times Smn protein vs DMSO vehicle
# Outline: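 Smn protein measured by HTRF (anti-SMN d2/kryptate) in lysates of SMA patient fibroblasts after 48 h compound treatment, 7-point 3.16-fold dilutions, triplicates. The 665/620 nm ratio is blank-corrected to ΔF, then divided by the vehicle ΔF to give fold increase.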
# [1] = system: full length SMN2 minigene mRNA containing SMN2 exon 7; experiment: SMN2 minigene mRNA splicing RT-qPCR assay in cultured cells; type: cell-based, human; details: Homo sapiens, HEK293-H; HEK293H cells stably transfected with SMN2-A minigene, 24 hours, 7-point concentration curve; concentration giving 1.5-fold full length SMN2 mRNA vs vehicle; read-out: EC1.5x for production of full length SMN2 mRNA
# Outline: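 Read-out is minigene FL mRNA (exon 7 included) relative to vehicle, from efficiency-corrected ΔΔCt with GAPDH normalisation. Primers and probe span exon 7, exon 8 and luciferase, so endogenous SMN is not detected. Stable SMN2-A minigene HEK293H cells, 24 h compound exposure at 37 °C, 7-point curve in duplicate.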
Compound,melting point,maximum fold (Fold) increase of Smn protein (Smn protein),EC (1.5-fold) [1],EC1.5x for Smn protein expression (Smn protein)
"C[C@H]1CN(c2ccc3cc(-c4cn5cccc(Cl)c5n4)oc(=O)c3c2)CCN1 [Cpd 60, 3-(8-chloroimidazo[1,2-a]pyridin-2-yl)-7-[(3S)-3-methylpiperazin-1-yl]-1H-isochromen-1-one]",314 to 316 °C,*** (a fold increase between >1.35 and ≦1.5 is indicated by three stars (***)),0.3 to 1 µM,–
"CN1CCN(c2ccc3cc(-c4cn5cccc(Cl)c5n4)oc(=O)c3c2)CC1 [Cpd 61, 3-(8-chloroimidazo[1,2-a]pyridin-2-yl)-7-(4-methylpiperazin-1-yl)-1H-isochromen-1-one]",240 °C (dec.),* (A maximum fold increase of ≦1.2 is indicated by one star (*)),1 to 3 µM,–
"Cc1cn2cc(-c3cc4ccc(N5CCN[C@@H](C)C5)cc4c(=O)o3)nc2c(C)n1 [Cpd 63, 3-(6,8-dimethylimidazo[1,2-a]pyrazin-2-yl)-7-[(3S)-3-methylpiperazin-1-yl]-1H-isochromen-1-one]",325 to 327 °C,***** (a fold increase >1.65 is indicated by five stars (*****)),≤ 0.1 µM,**** (an EC1.5×≦0.3 nM is indicated by four stars (****))
"Cc1cn2cc(-c3cc4ccc(N5C[C@@H](C)N[C@@H](C)C5)cc4c(=O)o3)nc2c(C)n1 [Cpd 64, 3-(6,8-dimethylimidazo[1,2-a]pyrazin-2-yl)-7-[(3R,5S)-3,5-dimethylpiperazin-1-yl]-1H-isochromen-1-one]",244 to 246 °C,***** (a fold increase >1.65 is indicated by five stars (*****)),≤ 0.1 µM,**** (an EC1.5×≦0.3 nM is indicated by four stars (****))
"Cc1cn2cc(-c3cc4ccc(N5CCN(C)[C@@H](C)C5)cc4c(=O)o3)nc2c(C)n1 [Cpd 66, 3-(6,8-dimethylimidazo[1,2-a]pyrazin-2-yl)-7-[(3S)-3,4-dimethylpiperazin-1-yl]-1H-isochromen-1-one]",255 to 256 °C,***** (a fold increase >1.65 is indicated by five stars (*****)),≤ 0.1 µM,**** (an EC1.5×≦0.3 nM is indicated by four stars (****))
"COc1ccc(-c2cc3ccc(N4CCN(C)[C@@H](C)C4)cc3c(=O)o2)cc1OC [Cpd 67, 3-(3,4-dimethoxyphenyl)-7-[(3S)-3,4-dimethylpiperazin-1-yl]-1H-isochromen-1-one]",138 to 140 °C,*** (a fold increase between >1.35 and ≦1.5 is indicated by three stars (***)),0.3 to 1 µM,"** (an EC1.5× between >1 μM, and ≦3 nM is indicated by two stars (**))"
"Cc1cn2cc(-c3cc4ccc(N5CCN6CCC[C@@H]6C5)cc4c(=O)o3)nc2cn1 [Cpd 68, 7-[(8aR)-hexahydropyrrolo[1,2-a]pyrazin-2(1H)-yl]-3-(6-methylimidazo[1,2-a]pyrazin-2-yl)-1H-isochromen-1-one]",255 to 257 °C,**** (a fold increase between >1.5 and ≦1.65 is indicated by four stars (****)),≤ 0.1 µM,* (An EC1.5× for Smn protein expression between >3 μM and <10 μM is indicated by one star (*))
"Cc1cn2cc(-c3cc4ccc(N5CCN[C@H](C)C5)cc4c(=O)o3)nc2c(C)n1 [Cpd 71, 3-(6,8-dimethylimidazo[1,2-a]pyrazin-2-yl)-7-[(3R)-3-methylpiperazin-1-yl]-1H-isochromen-1-one]",331 to 333 °C,***** (a fold increase >1.65 is indicated by five stars (*****)),≤ 0.1 µM,**** (an EC1.5×≦0.3 nM is indicated by four stars (****))
"Cc1cn2cc(-c3cc4ccc(N5CCN(C)[C@H](C)C5)cc4c(=O)o3)nc2c(C)n1 [Cpd 72, 3-(6,8-dimethylimidazo[1,2-a]pyrazin-2-yl)-7-[(3R)-3,4-dimethylpiperazin-1-yl]-1H-isochromen-1-one]",252 to 254 °C,***** (a fold increase >1.65 is indicated by five stars (*****)),≤ 0.1 µM,*** (an EC1.5× between >0.3 nM and ≦1 nM is indicated by three stars (***))
"CCN1CCN(c2ccc3cc(-c4cn5cc(C)nc(C)c5n4)oc(=O)c3c2)CC1 [Cpd 73, 3-(6,8-dimethylimidazo[1,2-a]pyrazin-2-yl)-7-(4-ethylpiperazin-1-yl)-1H-isochromen-1-one]",238 to 240 °C,***** (a fold increase >1.65 is indicated by five stars (*****)),≤ 0.1 µM,**** (an EC1.5×≦0.3 nM is indicated by four stars (****))
"Cc1cn2cc(-c3cc4ccc(N5CCN(C(C)C)CC5)cc4c(=O)o3)nc2c(C)n1 [Cpd 74, 3-(6,8-dimethylimidazo[1,2-a]pyrazin-2-yl)-7-[4-(propan-2-yl)piperazin-1-yl]-1H-isochromen-1-one]",260 to 262 °C,***** (a fold increase >1.65 is indicated by five stars (*****)),≤ 0.1 µM,**** (an EC1.5×≦0.3 nM is indicated by four stars (****))
"Cc1cn2cc(-c3cc4ccc(N5CCN(CCO)CC5)cc4c(=O)o3)nc2c(C)n1 [Cpd 75, 3-(6,8-dimethylimidazo[1,2-a]pyrazin-2-yl)-7-[4-(2-hydroxyethyl)piperazin-1-yl]-1H-isochromen-1-one]",248 to 250 °C,***** (a fold increase >1.65 is indicated by five stars (*****)),≤ 0.1 µM,*** (an EC1.5× between >0.3 nM and ≦1 nM is indicated by three stars (***))
"Cc1cn2cc(-c3cc4ccc(N5CCN(C)CC5)cc4c(=O)o3)cc2c(C)n1 [Cpd 76, 3-(1,3-dimethylpyrrolo[1,2-a]pyrazin-7-yl)-7-(4-methylpiperazin-1-yl)-1H-isochromen-1-one]",219 to 221 °C,*** (a fold increase between >1.35 and ≦1.5 is indicated by three stars (***)),≤ 0.1 µM,"** (an EC1.5× between >1 μM, and ≦3 nM is indicated by two stars (**))"

# Further lines, with some results ahead:
melting point,Compound,maximum fold (Fold) increase of Smn protein (Smn protein),EC (1.5-fold) [1],EC1.5x for Smn protein expression (Smn protein)
202 to 204 °C,"CCN1CCN(c2ccc3cc(-c4cc5c(C)nc(C)cn5c4)oc(=O)c3c2)CC1 [Cpd 77, 3-(1,3-dimethylpyrrolo[1,2-a]pyrazin-7-yl)-7-(4-ethylpiperazin-1-yl)-1H-isochromen-1-one]",*** (a fold increase between >1.35 and ≦1.5 is indicated by three stars (***)),≤ 0.1 µM,*** (an EC1.5× between >0.3 nM and ≦1 nM is indicated by three stars (***))
213 to 215 °C,"Cc1cn2cc(-c3cc4ccc(N5CCN(C(C)C)CC5)cc4c(=O)o3)cc2c(C)n1 [Cpd 78, 3-(1,3-dimethylpyrrolo[1,2-a]pyrazin-7-yl)-7-[4-(propan-2-yl)piperazin-1-yl]-1H-isochromen-1-one]",*** (a fold increase between >1.35 and ≦1.5 is indicated by three stars (***)),≤ 0.1 µM,–
240 to 242 °C,"Cc1cn2cc(-c3cc4ccc(N5CCN(CCO)CC5)cc4c(=O)o3)cc2c(C)n1 [Cpd 79, 3-(1,3-dimethylpyrrolo[1,2-a]pyrazin-7-yl)-7-[4-(2-hydroxyethyl)piperazin-1-yl]-1H-isochromen-1-one]",**** (a fold increase between >1.5 and ≦1.65 is indicated by four stars (****)),≤ 0.1 µM,**** (an EC1.5×≦0.3 nM is indicated by four stars (****))
220 to 222 °C,"Cc1cn2cc(-c3cc4ccc(N5CCN6CCC[C@H]6C5)cc4c(=O)o3)cc2c(C)n1 [Cpd 80, 3-(1,3-dimethylpyrrolo[1,2-a]pyrazin-7-yl)-7-[(8aS)-hexahydropyrrolo[1,2-a]pyrazin-2(1H)-yl]-1H-isochromen-1-one]",**** (a fold increase between >1.5 and ≦1.65 is indicated by four stars (****)),≤ 0.1 µM,**** (an EC1.5×≦0.3 nM is indicated by four stars (****))
218 to 220 °C,"Cc1cn2cc(-c3cc4ccc(N5CCN6CCC[C@@H]6C5)cc4c(=O)o3)cc2c(C)n1 [Cpd 81, 3-(1,3-dimethylpyrrolo[1,2-a]pyrazin-7-yl)-7-[(8aR)-hexahydropyrrolo[1,2-a]pyrazin-2(1H)-yl]-1H-isochromen-1-one]",***** (a fold increase >1.65 is indicated by five stars (*****)),≤ 0.1 µM,**** (an EC1.5×≦0.3 nM is indicated by four stars (****))
244 to 246 °C,"CCCN1CCN(c2ccc3cc(-c4cn5cc(C)nc(C)c5n4)oc(=O)c3c2)CC1 [Cpd 82, 3-(6,8-dimethylimidazo[1,2-a]pyrazin-2-yl)-7-(4-propylpiperazin-1-yl)-1H-isochromen-1-one]",***** (a fold increase >1.65 is indicated by five stars (*****)),≤ 0.1 µM,**** (an EC1.5×≦0.3 nM is indicated by four stars (****))
